Experimental data as given in ChEMBL document CHEMBL1201862, “PubChem BioAssay data set” (2004).
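Tested at 5 concentrations; 48 h exposure; 96-well plates; endpoints linearly interpolated, else capped at highest concentration. GI50 is the concentration that inhibits growth by half.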 Activity calls are given as the source filed them. No stated cut-off is given here; in the data, active = GI50 up to about 1.1 µM and inactive = higher.

Key:
Assay in all cases: inhibition of tumour cell growth, NCI panel, 48 h
[1] = system: ACHN
[2] = system: DU-145
[3] = system: HL-60
[4] = system: HOP-62
[5] = system: HT-29
[6] = system: IGROV-1
[7] = system: KM12
[8] = system: LOX IMVI
[9] = system: MCF7
[10] = system: MDA-MB-231
[11] = system: MOLT-4
[12] = system: Malme-3M
[13] = system: OVCAR-5
[14] = system: OVCAR-8
[15] = system: SK-MEL-28
[16] = system: SK-MEL-2
[17] = system: SK-MEL-5
[18] = system: SR
[19] = system: T47D
[20] = system: UACC-257

Measured: GI50

CC(CN1CC(=O)NC(=O)C1)N1CC(=O)NC(=O)C1 (stereo not given) [RAZOXANE]
inactive: [1] 242 µM | [2] 160 µM | [3] 53.1 µM | [4] 54.7 µM | [5] 119 µM | [6] 289 µM | [7] 398 µM | [8] 212 µM | [9] 33.2 µM | [10] 171 µM | [11] 34.9 µM | [12] 52.2 µM | [13] 343 µM | [14] 460 µM | [15] 522 µM | [16] 399 µM | [17] 198 µM | [18] 155 µM | [19] 231 µM | [20] 535 µM

CC(=O)c1c2c(cc3c1CC1(C3)Cc3ccc4c(c3C1=O)CCC4)CCC2 (stereo not given)
inactive: [1] 65.3 µM | [2] 99.3 µM | [3] 3.58 µM | [4] > 100 µM | [5] 11.8 µM | [6] 87.3 µM | [7] 17.2 µM | [8] 14.8 µM | [9] 16.7 µM | [10] 24.7 µM | [11] 22.3 µM | [12] 30.6 µM | [13] > 100 µM | [14] 75.3 µM | [15] 57.1 µM | [16] 34.8 µM | [17] 13.4 µM | [18] 4.61 µM | [19] 9.73 µM | [20] 2.75 µM

Cc1ccc(NCc2nnc3c(-c4ccccc4)nc4ccccc4n23)cc1
inactive: [1] 23.9 µM | [2] 25.2 µM | [3] 14.4 µM | [4] 46.1 µM | [5] 21.5 µM | [6] 17.5 µM | [7] 22.8 µM | [8] 23.5 µM | [9] 23.6 µM | [10] 24.5 µM | [11] 16 µM | [12] 37.2 µM | [13] 39.9 µM | [14] 24 µM | [15] 64 µM | [16] 24.8 µM | [17] 14.4 µM | [18] 13 µM | [19] 3.36 µM | [20] 36 µM
